# Laboratory results reported in patent US10610125B2, “Methods and compositions for cell-proliferation-related disorders” (Agios Pharmaceuticals, Inc., priority 2009, dated 2020).
# Where two headings read alike, the source gives them in different places.
# How the values were obtained:
# IDH1 R132C [1] = biological target: T1, IDH1 R132C (Homo sapiens (Human), UniProt O75874, R132C); assay: IDH1/2 activity assay, forward reaction (isocitrate, NADP+), stopped-flow, IDH1 R132C; type: biochemical
# Description: (§1) Enzymatic binding constants were determined using curve fitting algorithms to standard kinetic models with the Sigmaplot software package (Systat Software, San Jose, Calif.). For determination of kcat, enzyme was incubated with 5×Km of substrate and cofactor; consumption of NADPH or NADP was determined by a change in the OD340 over time. In both cases an extinction coefficient of 6200 M^−1 cm^−1 was used for NADPH.
# IDH1 R132C [2] = biological target: T1, IDH1 R132C; assay: IDH1/2 activity assay, reverse reaction (α-KG, NADPH), stopped-flow, IDH1 R132C; type: biochemical; conditions: Reductive (→ NADP+)
# Description: as §1
# IDH1 wild-type [3] = biological target: T2, IDH1 wild-type (Homo sapiens (Human), UniProt O75874); assay: Oxidative decarboxylation of isocitrate to α-KG by IDH1 wild-type (340 nm); type: biochemical
# Description: (§2) In these reactions, the substrate was varied while the cofactor was held constant at 500 uM. All reactions were performed in 150 mM NaCl, 20 mM Tris-Cl, pH 7.5, 10% glycerol, and 0.03% (w/v) BSA). Reaction progress was followed by spectroscopy at 340 nM monitoring the change in oxidation state of the cofactor. Sufficient enzyme was added to give a linear change in absorbance for 10 minutes.
# (§3) A well-known regulatory mechanism for control of metabolic enzymes is feedback inhibition, in which the product of the reaction acts as a negative regulator for the generating enzyme.
# IDH1 R132H [4] = biological target: T3, IDH1 R132H (Homo sapiens (Human), UniProt O75874, R132H); assay: Oxidative decarboxylation of isocitrate to α-KG by IDH1 R132H (340 nm); type: biochemical
# Description: as §2, §3
# IDH1 R132S [5] = biological target: T4, IDH1 R132S (Homo sapiens (Human), UniProt O75874, R132S); assay: Oxidative decarboxylation of isocitrate to α-KG by IDH1 R132S (340 nm); type: biochemical
# Description: as §2, §3
# IDH1 wild-type [6] = biological target: T2, IDH1 wild-type; assay: IDH1/2 activity assay, forward reaction (isocitrate, NADP+), stopped-flow, IDH1 wild-type; type: biochemical; conditions: Oxidative (→ NADPH), WT
# Description: as §1
# glioblastoma multiforme [7] = conditions: cited from earlier work
# glioblastoma multiforme [8] = conditions: cited from earlier work; remark: listed apart in the source
# recurrent glioma = recurrent glioma patients; cited from earlier work
# IDH1 R132H [9] = biological target: T3, IDH1 R132H; assay: Reduction of α-KG with NADPH by IDH1 R132H; type: biochemical
# Description: as §2, with “reactions,” for “reactions, the”, “50” for “150”, “potassium phosphate buffer,” for “NaCl, 20 mM Tris-Cl,”, “6.5,” for “7.5,”, “glycerol,” for “glycerol, and”, “BSA, 5 mM MgCl2, and 40 mM sodium hydrocarbonate.” for “BSA).”
# IDH1 R132S [10] = biological target: T4, IDH1 R132S; assay: Reduction of α-KG with NADPH by IDH1 R132S; type: biochemical
# Description: as §2, with “reactions,” for “reactions, the”, “50” for “150”, “potassium phosphate buffer,” for “NaCl, 20 mM Tris-Cl,”, “6.5,” for “7.5,”, “glycerol,” for “glycerol, and”, “BSA, 5 mM MgCl2, and 40 mM sodium hydrocarbonate.” for “BSA).”
# IDH1 wild-type [11] = biological target: T2, IDH1 wild-type; assay: Reduction of α-KG with NADPH by IDH1 wild-type; type: biochemical; conditions: 40 ug/ml enzyme
# Description: as §2, with “reactions,” for “reactions, the”, “50” for “150”, “potassium phosphate buffer,” for “NaCl, 20 mM Tris-Cl,”, “6.5,” for “7.5,”, “glycerol,” for “glycerol, and”, “BSA, 5 mM MgCl2, and 40 mM sodium hydrocarbonate.” for “BSA).”
# IDH1 wild-type [12] = biological target: T2, IDH1 wild-type; assay: IDH1/2 activity assay, reverse reaction (α-KG, NADPH), stopped-flow, IDH1 wild-type; type: biochemical; conditions: Reductive (→ NADP+); WT; est.
# Description: as §1
# [13] = for isocitrate, cofactor 500 uM
# [14] = with radiation, vs radiation alone
# [15] = without MGMT promoter methylation
# [16] = α-KG product inhibition, competitive with isocitrate, read-out: Ki
# [17] = for α-KG, cofactor 500 uM, pH 6.5
# [18] = α-KG varied, cofactor 500 uM, pH 6.5
# T4 sequence (O75874 whole entry R132S): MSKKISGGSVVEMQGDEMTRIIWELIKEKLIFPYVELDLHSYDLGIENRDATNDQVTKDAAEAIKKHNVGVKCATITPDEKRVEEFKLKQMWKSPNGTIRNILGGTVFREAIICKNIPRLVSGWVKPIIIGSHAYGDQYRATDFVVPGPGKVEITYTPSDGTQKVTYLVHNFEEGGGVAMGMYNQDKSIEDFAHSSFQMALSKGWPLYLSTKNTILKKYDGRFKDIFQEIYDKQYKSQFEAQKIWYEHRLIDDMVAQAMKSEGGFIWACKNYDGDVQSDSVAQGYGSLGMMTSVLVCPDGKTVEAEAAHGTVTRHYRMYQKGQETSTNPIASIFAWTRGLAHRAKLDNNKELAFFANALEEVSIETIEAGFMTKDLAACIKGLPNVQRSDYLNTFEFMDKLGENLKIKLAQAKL
# T1 sequence (O75874 whole entry R132C): as the sequence (O75874 whole entry R132S) above, with S132C counted along it
# T3 sequence (O75874 whole entry R132H): as the sequence (O75874 whole entry R132S) above, with S132H counted along it
# T2 sequence (O75874 whole entry): as the sequence (O75874 whole entry R132S) above, with S132R counted along it
compound,measurement,setting,value
NC(=O)c1ccc[n+]([C@@H]2O[C@H](COP(=O)([O-])OP(=O)(O)OC[C@H]3O[C@@H](n4cnc5c(N)ncnc54)[C@H](OP(=O)(O)O)[C@@H]3O)[C@@H](O)[C@H]2O)c1 [NADP+],Km,"IDH1 R132C [1]; Oxidative (→ NADPH), read-out: KM,NADP+",21 µM
NC(=O)C1=CN([C@@H]2O[C@H](COP(=O)(O)OP(=O)(O)OC[C@H]3O[C@@H](n4cnc5c(N)ncnc54)[C@H](OP(=O)(O)O)[C@@H]3O)[C@@H](O)[C@H]2O)C=CC1 [NADPH],Km,"IDH1 R132C [2]; read-out: KM,NADPH",0.3 µM
"O=C(O)C(=O)C(C(=O)O)C(O)C(=O)O (centres unmarked) [Oxalomalate, oxalomalate]",Ki,"IDH1 wild-type [3]; IDH1 wt 1.5 ug/ml, NADP 0.5 mM, DL-isocitrate 5-650 uM, read-out: Oxalomalate Ki",955 µM
same,Ki,"IDH1 R132H [4]; IDH1R132H 60 ug/ml, NADP 0.5 mM, DL-isocitrate 5-650 uM, read-out: Oxalomalate Ki",951 µM
same,susceptibility to inhibition by oxalomalate,IDH1 R132H [4]; R132H vs wt,essentially unaffected
same,Ki,"IDH1 R132S [5]; IDH1R132S 30 ug/ml, NADP 0.5 mM, DL-isocitrate 5-650 uM, read-out: Oxalomalate Ki",510 µM
same,increase in susceptibility to inhibition by oxalomalate,IDH1 R132S [5]; R132S vs wt,two-fold
O=C(O)CC(C(=O)O)C(O)C(=O)O (centres unmarked) [isocitrate],Km,IDH1 wild-type [3]; [13],56.8 µM
same,Km,IDH1 R132H [4]; [13],172 µM
same,Km,"IDH1 wild-type [6]; read-out: KM,isocitrate",57 µM
same,Km,"IDH1 R132C [1]; read-out: KM,isocitrate, Oxidative (→ NADPH)",87000 µM
"O=C(O)CCC(O)C(=O)O (centres unmarked) [reaction product 2-HG, 2-hydroxyglutarate]",effect on oxidative decarboxylation of isocitrate by wild-type ICDH1,IDH1 wild-type [3]; added in a titration series,inhibit
"Cn1nnc2c(C(N)=O)ncn2c1=O [temozolomide, Temozolomide]",tolerability,glioblastoma multiforme [7]; in vivo,well tolerated
same,likelihood of being alive in 2 years,glioblastoma multiforme [7]; [14],26%
same,median progression-free survival,glioblastoma multiforme [7]; [14],6.9 mo
same,overall survival,glioblastoma multiforme [7]; [14],14.6 mo
same,2-year survival rate,glioblastoma multiforme [8]; with MGMT promoter methylation,46%
same,median survival,glioblastoma multiforme [8]; with MGMT promoter methylation,21.7 months
same,2-year survival rate,glioblastoma multiforme [8]; [15],13.8%
same,median survival,glioblastoma multiforme [8]; [15],12.7 months
same,6-month survival,recurrent glioma,21%
"O=C(O)CCC(=O)C(=O)O [α-KG, α-Ketoglutarate]",Ki,IDH1 wild-type [3]; [16],612 µM
same,Ki,IDH1 R132H [4]; [16],28.6 µM
same,increase in sensitivity to feedback inhibition as compared to the wild-type enzyme,"IDH1 R132H [4]; α-KG, R132H vs wild-type",20 fold
same,Ki,IDH1 R132S [5]; [16],45.3 µM
same,increase in sensitivity to feedback inhibition as compared to the wild-type enzyme,"IDH1 R132S [5]; α-KG, R132S vs wild-type",13 fold
same,Km,IDH1 R132H [9]; [17],965 µM
same,Hill Constant,IDH1 R132H [9]; α-KG varied,1.8
same,Vmax,IDH1 R132H [9]; [18],1.3 µmol/min/mg
same,Km,IDH1 R132S [10]; [17],181 µM
same,Ki,IDH1 R132S [10]; uncompetitive substrate inhibition by α-KG,24600 µM
same,Hill Constant,IDH1 R132S [10]; α-KG varied,0.479
same,Vmax,IDH1 R132S [10]; [18],2.7 µmol/min/mg
same,NADPH consumption in reduction of α-KG,IDH1 wild-type [11],unable to consume NADPH
same,Ki,"IDH1 wild-type [6]; read-out: Ki,αKG",610 µM
same,Ki,"IDH1 R132C [1]; Oxidative (→ NADPH), read-out: Ki,αKG",61 µM
same,Km,"IDH1 R132C [2]; read-out: KM,αKG",295 µM
R132C,kcat,IDH1 R132C [1]; Oxidative (→ NADPH),710 s⁻¹
same,kcat,IDH1 R132C [2],550 s⁻¹
WT,kcat,IDH1 wild-type [6],130000 s⁻¹
same,kcat,IDH1 wild-type [12],~7 (est.) s^−1
